Activity calls are given as the source filed them.
Tests used:
[1] = molecular target: T1, Corticotropin-releasing factor receptor 2/Corticotropin-releasing factor-binding protein (Homo sapiens, UniProt P24387+Q13324); experiment: activators of CRF receptor 2 with binding protein – uHTS hits, confirmation (AID 602473); format: functional; conditions: read-out: EC50_Mean
T1 sequence (Q13324 whole entry): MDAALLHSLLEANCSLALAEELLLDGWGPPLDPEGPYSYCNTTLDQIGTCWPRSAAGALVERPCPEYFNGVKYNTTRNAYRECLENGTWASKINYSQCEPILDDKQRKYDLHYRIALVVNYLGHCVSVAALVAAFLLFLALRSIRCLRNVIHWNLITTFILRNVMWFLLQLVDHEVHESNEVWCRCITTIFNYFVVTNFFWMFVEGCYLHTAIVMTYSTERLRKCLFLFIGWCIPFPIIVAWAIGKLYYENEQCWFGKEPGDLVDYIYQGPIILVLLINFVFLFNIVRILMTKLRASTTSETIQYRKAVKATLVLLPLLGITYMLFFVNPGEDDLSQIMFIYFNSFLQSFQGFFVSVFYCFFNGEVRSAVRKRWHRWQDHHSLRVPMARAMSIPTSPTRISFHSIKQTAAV
T1 sequence (P24387 whole entry): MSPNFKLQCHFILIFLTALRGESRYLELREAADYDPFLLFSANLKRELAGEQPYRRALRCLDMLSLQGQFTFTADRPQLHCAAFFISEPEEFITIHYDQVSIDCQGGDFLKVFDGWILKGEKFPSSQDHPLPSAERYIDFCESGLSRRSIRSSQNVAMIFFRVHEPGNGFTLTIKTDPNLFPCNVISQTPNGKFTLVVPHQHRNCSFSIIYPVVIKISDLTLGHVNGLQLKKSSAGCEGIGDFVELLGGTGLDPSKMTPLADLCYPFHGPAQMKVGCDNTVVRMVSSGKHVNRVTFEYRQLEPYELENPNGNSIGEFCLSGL

[2] = molecular target: T1, Corticotropin-releasing factor receptor 2/Corticotropin-releasing factor-binding protein; experiment: Dose Response confirmation of uHTS hits for small molecule antagonists of the CRF-binding protein and CRF-R2 receptor complex.; format: functional; conditions: read-out: IC50_Mean
[3] = CRF-BP/CRF-R2 complex antagonists, dose response, cell-based, uHTS hits, 384-well (AID 651639); format: functional, Homo sapiens; conditions: read-out: IC50_Mean
[4] = molecular target: Mitochondrial peptide methionine sulfoxide reductase (Bos taurus, UniProt P54149); format: functional;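 also: absorbance read-out, biochemical high-throughput dose-response screen for MsrA inhibitors, confirmatory; recombinant bovine MsrA coupled to E. coli TrxB with NADPH and selenocystamine; potency is for inhibitors of MsrA activity on DMSO substrate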
[5] = molecular target: T2, ATP-dependent translocase ABCB1 (Homo sapiens, UniProt P08183); experiment: ABCB1 efflux inhibitor potency, dose response, Jurkat-DNR cells, JC-1, flow cytometry, set 2 (AID 504569); format: functional; conditions: read-out: EC50_MICROM_;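 also: potency of pump inhibitors that raise cellular JC-1 green fluorescence up to the nicardipine level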
[6] = molecular target: T2, ATP-dependent translocase ABCB1; experiment: ABCG2 efflux pump inhibitor potency, dose response, Ig-MXP3 cells, JC-1, flow cytometry, set 2 (AID 504566); format: functional; conditions: read-out: EC50_MICROM_;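 also: flow cytometry median green fluorescence of retained JC-1 dye; potency of efflux pump inhibition measured as rising substrate retention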
H9c2 = experiment: cells; format: functional, cell-based; conditions: Rattus norvegicus, H9c2, Myocardium;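 also: confirmatory concentration-response retest of ultra-high-throughput screening hits for modulation of myocardial damage; cell death induced by hydrogen peroxide oxidative stress; compound pretreatment for 60 min then peroxide exposure for 2 h; potency is for protecting the cells against peroxide damage rather than for killing them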
[7] = off-target signal loss in HeLa-CEM21 co-culture – HeLa F-luc CTL cells, cherry-picked, counter-screen for HIV-1 Env fusion inhibitor project, dose response (AID 652040); format: functional, cell-based;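 also: potency for signal decrease marking cytotoxic or nonspecific inhibition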
[8] = molecular target: Dual specificity tyrosine-phosphorylation-regulated kinase 1A (Rattus norvegicus, UniProt Q63470); format: biochemical, Homo sapiens
[9] = molecular target: T3, Heat shock factor protein 1 (Mus musculus, UniProt P38532); experiment: inhibition of MG132-induced HSE-luciferase signal, confirmation, cell-based, NIH3T3, luminescence, dose retest (AID 2382); format: functional;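 also: NIH3T3 fibroblasts with HSF1-driven luciferase reporter stressed by proteasome inhibitor MG132; luminescence from HSF1-driven luciferase expression after 8 hours of MG132 stress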
T3 sequence (P38532 whole entry): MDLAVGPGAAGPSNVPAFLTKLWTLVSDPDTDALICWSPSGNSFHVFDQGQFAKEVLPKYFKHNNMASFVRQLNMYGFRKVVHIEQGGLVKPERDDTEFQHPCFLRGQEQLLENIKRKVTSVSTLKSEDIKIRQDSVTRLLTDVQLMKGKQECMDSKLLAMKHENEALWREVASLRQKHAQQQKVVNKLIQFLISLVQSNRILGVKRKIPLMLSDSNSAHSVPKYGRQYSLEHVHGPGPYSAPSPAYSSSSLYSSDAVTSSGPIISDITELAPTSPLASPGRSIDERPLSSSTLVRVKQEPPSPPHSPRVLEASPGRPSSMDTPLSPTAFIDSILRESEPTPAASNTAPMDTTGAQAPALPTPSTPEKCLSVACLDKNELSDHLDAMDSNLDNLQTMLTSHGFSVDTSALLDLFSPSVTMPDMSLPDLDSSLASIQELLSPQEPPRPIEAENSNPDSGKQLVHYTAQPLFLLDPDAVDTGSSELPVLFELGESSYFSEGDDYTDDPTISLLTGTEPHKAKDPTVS

[10] = inhibitors of clade B AD8 Env fusion, dose response, cell-based, cherry-pick (AID 652062); format: functional;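 also: luciferase signal from cell-cell fusion driven by HIV-1 clade B AD8 Env; potency is for inhibitors of fusion seen as a drop in luminescence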
Cytochrome P450 3A4 = Cytochrome P450 3A4 (Homo sapiens, UniProt P08684);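 also: CYP3A4 tested as one member of a cytochrome P450 panel screen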
[11] = inhibitors of HIV Env-driven cell fusion, dose response, cherry-pick (AID 652057); format: functional, cell-based
[12] = molecular target: Sphingosine 1-phosphate receptor 2 (Homo sapiens, UniProt O95136); experiment: Dose Response Cell Based Assay for Antagonists of the S1P2 Receptor. [Related pubchem assays: 856, 736 ]; format: functional
[13] = molecular target: T4, Microphthalmia-associated transcription factor (Homo sapiens, UniProt O75030); experiment: TRPM1 promoter luciferase signal decrease, dose response, MITF inhibitor project, cell-based, SK-MEL-5, cherry-picked, set 3 (AID 493073); format: functional
T4 sequence (O75030 whole entry): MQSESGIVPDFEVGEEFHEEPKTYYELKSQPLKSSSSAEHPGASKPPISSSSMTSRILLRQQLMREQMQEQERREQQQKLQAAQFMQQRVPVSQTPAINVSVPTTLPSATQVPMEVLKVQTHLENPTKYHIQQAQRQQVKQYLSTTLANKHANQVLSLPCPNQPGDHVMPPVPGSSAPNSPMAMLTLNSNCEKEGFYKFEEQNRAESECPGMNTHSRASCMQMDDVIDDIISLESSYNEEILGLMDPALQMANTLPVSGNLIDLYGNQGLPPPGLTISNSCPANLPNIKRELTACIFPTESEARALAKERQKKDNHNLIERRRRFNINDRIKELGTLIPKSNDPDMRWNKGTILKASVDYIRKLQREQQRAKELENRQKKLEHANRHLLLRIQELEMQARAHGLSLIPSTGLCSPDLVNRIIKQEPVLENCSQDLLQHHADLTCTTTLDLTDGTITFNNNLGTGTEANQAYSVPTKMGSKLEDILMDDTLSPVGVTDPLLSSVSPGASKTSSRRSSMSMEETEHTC

Interleukin-8 [14] = molecular target: T5, Interleukin-8 (Homo sapiens, UniProt P10145); experiment: Dose Response confirmation of uHTS small molecule hits for cystic fibrosis induced NFkb Inhibitors in a PAF-induced IL8 counterscreen.; format: functional; conditions: read-out: IC50_Mean
T5 sequence (P10145 whole entry): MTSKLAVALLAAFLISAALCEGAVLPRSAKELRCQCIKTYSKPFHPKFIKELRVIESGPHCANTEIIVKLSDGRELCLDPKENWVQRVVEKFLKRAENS

[15] = ZM109 Env clade C HIV-1 fusion inhibitors, dose response, HeLa effector, CEM target cells, luciferase, cherry-pick (AID 652058); format: functional, cell-based
[16] = CEM21 lymphoblast cell cytotoxicity, dose response, cytotoxicity control for viral fusion inhibitor project, CellTiter-Glo luminescence, cherry-picked (AID 652042); format: functional, cell-based;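 also: potency for signal decrease meaning cytotoxicity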
Interleukin-8 [17] = molecular target: T5, Interleukin-8; experiment: Dose Response confirmation of uHTS small molecule hits for cystic fibrosis induced NFkb Inhibitors in a TNFa-induced IL8 counterscreen.; format: functional; conditions: read-out: IC50_Mean
[18] = molecular target: T3, Heat shock factor protein 1; experiment: HSF1 potentiators in luciferase reporter cells, confirmation, cell-based, NIH3T3, luminescence, dose retest (AID 435004); format: functional;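 also: stress induced by proteasome inhibitor MG132 added 30 min after compound; luciferase reporter driven by HSF1 response element in NIH3T3 cells; actives raise luminescence as potentiators of the MG132 stress response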
[19] = molecular target: T6, Replicative DNA helicase DnaB (Mycobacterium tuberculosis, UniProt P9WMR3); experiment: DnaB intein splicing inhibitors, dose response, biochemical, cell-free fluorescence (AID 449749); format: functional
T6 sequence (P9WMR3 whole entry): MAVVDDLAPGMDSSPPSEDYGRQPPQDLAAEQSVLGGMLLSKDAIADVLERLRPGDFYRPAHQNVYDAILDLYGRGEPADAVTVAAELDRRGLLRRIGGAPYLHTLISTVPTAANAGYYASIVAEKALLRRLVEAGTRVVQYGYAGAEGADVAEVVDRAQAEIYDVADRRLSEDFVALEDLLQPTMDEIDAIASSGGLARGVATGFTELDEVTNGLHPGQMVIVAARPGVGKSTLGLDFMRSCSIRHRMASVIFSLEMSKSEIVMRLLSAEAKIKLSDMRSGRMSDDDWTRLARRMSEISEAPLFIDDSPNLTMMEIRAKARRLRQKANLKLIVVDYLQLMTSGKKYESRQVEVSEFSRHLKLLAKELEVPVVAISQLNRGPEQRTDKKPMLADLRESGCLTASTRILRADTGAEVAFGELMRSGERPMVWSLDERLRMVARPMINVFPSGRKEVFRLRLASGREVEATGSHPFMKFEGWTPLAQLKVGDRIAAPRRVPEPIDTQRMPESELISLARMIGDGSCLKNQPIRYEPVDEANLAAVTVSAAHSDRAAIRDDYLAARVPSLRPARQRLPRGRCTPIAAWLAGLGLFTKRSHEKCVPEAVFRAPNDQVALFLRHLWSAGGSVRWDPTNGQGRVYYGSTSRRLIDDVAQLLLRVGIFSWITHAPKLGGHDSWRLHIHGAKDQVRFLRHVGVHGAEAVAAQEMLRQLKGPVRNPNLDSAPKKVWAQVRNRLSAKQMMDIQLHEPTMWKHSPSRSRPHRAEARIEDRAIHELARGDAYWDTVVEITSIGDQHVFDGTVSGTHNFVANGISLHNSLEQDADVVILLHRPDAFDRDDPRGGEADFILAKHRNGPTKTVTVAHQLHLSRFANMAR

[20] = molecular target: Hepatocyte nuclear factor 4-alpha (Homo sapiens, UniProt P41235); format: functional, cell-based;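 also: biochemical luminescence-based dose-response counterscreen measuring inhibition of HNF4 dimerization, run alongside a screen for blockers of ABHD5–perilipin-5 interaction; split luciferase complementation of HNF4 fusion proteins in cell lysate measuring dimerization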
Protein RecA = molecular target: T7, Protein RecA (Mycobacterium tuberculosis, UniProt P9WHJ3); experiment: Fluorescence Cell-Free Homogeneous Dose Retest to Identify Inhibitors of RecA-Intein Splicing Activity. [Related pubchem assays (depositor defined):AID2097, AID2223, AID489010, AID492950]; format: functional
T7 sequence (P9WHJ3 whole entry): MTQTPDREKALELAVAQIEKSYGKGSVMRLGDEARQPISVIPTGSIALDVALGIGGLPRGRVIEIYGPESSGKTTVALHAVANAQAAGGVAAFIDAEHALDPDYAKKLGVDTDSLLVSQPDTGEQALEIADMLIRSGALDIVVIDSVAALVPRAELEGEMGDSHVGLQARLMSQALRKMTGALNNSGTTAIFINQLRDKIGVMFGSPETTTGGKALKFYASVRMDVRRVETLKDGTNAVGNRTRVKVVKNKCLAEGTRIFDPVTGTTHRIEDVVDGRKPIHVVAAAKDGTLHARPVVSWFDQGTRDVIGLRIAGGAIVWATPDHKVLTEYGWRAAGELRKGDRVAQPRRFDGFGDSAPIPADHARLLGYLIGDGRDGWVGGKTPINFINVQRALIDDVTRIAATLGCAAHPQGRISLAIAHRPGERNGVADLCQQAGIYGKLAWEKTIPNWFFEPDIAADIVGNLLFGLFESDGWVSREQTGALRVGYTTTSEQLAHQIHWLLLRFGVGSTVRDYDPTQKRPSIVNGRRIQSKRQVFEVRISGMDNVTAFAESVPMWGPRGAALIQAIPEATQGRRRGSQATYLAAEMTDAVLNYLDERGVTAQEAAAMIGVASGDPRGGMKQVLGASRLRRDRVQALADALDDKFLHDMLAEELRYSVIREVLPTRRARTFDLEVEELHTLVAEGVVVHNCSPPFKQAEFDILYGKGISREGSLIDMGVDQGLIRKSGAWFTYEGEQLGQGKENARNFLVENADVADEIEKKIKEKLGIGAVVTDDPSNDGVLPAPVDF

[21] = molecular target: Photoreceptor-specific nuclear receptor (Homo sapiens, UniProt Q9Y5X4); format: functional, cell-based;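 also: CHO-S cells with Gal4-NCOR and VP16-NR2E3 two-hybrid luciferase reporter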
[22] = AlphaScreen signal interference compounds, dose response, artefact control for ARNT-TACC3 interaction inhibitor project, biochemical, luminescence, cherry-pick (AID 651705); format: functional;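 also: AlphaScreen bead proximity signal that flags compounds interfering with the detection technology; potency reflects signal decrease which marks the compound as an assay artifact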

T2 sequence (P08183 whole entry): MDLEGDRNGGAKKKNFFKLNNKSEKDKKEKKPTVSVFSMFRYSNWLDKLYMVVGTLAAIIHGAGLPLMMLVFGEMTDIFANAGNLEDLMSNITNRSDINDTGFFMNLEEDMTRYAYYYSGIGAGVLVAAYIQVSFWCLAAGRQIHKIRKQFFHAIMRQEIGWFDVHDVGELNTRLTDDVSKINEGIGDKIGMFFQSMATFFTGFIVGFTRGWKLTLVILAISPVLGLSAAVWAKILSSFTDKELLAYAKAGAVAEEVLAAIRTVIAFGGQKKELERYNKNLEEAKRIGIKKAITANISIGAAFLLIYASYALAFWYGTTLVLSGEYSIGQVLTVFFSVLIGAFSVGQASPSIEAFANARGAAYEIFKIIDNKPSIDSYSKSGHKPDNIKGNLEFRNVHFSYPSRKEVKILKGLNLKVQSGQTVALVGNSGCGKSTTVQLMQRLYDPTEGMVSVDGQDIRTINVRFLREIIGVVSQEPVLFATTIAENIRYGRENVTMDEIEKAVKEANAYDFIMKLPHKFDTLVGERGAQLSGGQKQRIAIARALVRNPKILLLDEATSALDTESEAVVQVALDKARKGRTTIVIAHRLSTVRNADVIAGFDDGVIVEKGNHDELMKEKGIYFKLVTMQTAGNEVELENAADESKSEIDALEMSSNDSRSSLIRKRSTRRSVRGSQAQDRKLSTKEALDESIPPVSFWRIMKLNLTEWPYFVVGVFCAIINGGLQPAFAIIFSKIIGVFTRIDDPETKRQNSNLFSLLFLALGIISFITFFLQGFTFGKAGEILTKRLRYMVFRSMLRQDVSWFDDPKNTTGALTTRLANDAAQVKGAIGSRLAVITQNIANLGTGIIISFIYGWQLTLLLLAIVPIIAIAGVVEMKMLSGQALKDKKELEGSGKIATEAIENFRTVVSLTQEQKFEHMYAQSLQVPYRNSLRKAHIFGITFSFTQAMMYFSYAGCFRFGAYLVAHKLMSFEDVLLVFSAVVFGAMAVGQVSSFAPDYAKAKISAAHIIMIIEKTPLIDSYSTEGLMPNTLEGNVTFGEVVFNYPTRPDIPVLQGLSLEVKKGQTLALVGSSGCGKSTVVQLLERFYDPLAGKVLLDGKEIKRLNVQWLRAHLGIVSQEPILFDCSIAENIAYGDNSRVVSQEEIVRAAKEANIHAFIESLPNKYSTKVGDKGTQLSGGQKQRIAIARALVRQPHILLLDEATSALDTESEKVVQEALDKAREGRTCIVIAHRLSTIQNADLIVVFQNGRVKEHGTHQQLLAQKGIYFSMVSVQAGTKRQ
Chain of Photoreceptor-specific nuclear receptor (Q9Y5X4 whole entry, the tested form may be a part): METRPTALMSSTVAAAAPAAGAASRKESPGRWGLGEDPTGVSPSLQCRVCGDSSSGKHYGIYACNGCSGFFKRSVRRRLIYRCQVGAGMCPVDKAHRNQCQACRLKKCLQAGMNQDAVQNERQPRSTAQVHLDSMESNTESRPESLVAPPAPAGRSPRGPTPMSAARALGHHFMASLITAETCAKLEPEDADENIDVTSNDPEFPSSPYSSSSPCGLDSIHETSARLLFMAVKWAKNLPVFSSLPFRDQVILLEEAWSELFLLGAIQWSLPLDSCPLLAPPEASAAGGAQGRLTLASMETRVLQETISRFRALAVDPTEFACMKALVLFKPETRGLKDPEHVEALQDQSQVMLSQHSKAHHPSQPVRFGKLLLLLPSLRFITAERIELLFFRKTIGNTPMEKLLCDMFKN
Chain of Sphingosine 1-phosphate receptor 2 (O95136 whole entry): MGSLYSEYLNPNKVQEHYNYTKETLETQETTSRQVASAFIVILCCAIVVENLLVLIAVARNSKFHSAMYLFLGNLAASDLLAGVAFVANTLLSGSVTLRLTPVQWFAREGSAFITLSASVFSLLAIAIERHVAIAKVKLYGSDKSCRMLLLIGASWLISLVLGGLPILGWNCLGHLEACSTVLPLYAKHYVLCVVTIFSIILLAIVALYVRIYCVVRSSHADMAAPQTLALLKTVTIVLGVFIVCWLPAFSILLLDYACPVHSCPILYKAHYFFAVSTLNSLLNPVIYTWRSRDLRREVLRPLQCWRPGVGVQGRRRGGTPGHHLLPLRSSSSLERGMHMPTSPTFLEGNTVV
Chain of Mitochondrial peptide methionine sulfoxide reductase (P54149 whole entry): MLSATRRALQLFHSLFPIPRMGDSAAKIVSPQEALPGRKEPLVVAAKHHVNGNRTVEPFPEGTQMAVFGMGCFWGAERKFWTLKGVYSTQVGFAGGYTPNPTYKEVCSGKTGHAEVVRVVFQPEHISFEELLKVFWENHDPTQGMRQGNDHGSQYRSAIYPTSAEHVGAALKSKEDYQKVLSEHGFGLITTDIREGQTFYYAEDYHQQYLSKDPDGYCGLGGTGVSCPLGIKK
Chain of Hepatocyte nuclear factor 4-alpha (P41235 whole entry, the tested form may be a part): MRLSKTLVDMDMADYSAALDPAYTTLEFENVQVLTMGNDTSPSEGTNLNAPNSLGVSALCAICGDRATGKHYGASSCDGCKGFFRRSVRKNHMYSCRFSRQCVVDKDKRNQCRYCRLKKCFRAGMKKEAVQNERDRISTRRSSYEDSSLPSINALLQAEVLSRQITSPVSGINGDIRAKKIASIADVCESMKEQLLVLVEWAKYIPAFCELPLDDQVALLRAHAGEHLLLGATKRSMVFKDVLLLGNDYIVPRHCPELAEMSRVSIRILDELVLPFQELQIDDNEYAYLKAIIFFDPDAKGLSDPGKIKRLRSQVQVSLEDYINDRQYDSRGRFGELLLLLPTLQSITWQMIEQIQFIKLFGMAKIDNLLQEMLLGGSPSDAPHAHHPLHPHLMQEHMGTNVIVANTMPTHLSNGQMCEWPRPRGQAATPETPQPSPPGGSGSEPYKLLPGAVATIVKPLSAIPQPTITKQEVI
Chain of Cytochrome P450 3A4 (P08684 whole entry, the tested form may be a part): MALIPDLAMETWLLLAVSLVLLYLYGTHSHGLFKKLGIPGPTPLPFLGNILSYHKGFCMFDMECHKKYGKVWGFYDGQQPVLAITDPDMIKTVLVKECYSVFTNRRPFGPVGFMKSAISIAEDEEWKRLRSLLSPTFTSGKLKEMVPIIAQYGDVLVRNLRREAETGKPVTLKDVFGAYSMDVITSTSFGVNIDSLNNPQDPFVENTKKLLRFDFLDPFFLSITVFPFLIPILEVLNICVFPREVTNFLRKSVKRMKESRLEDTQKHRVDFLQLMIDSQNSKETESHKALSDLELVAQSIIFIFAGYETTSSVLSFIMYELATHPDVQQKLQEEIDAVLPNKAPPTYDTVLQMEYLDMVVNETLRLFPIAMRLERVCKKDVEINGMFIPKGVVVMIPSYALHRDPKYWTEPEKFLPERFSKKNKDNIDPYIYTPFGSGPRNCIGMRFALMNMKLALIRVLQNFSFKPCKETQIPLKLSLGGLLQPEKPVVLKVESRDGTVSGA

CN(CCOc1ccc(Cl)cc1)C(=O)C1CCN(C(=O)c2ccc(Cl)cc2)CC1
EC50 [1]: > 53 µM (inactive)
IC50 [2]: < 0.368 µM (active)
IC50 [3]: > 20 µM (inactive)

O=[N+]([O-])c1cccc(/C=N/n2c(S)nnc2C2CCCCC2)c1
IC50 [4]: 155 µM (inactive)

COc1ccc(-c2cc3nc(-c4ccccc4)cc(N4CCN(C(C)=O)CC4)n3n2)cc1
EC50 [5]: 1.94 µM (active)
EC50 [6]: 1.47 µM (active)
IC50 (H9c2): > 79 µM (inactive)

COc1cccc(-c2nnc3n2N=C(C(C)(C)C)CS3)c1
AC50 [7]: 2.95 µM (active)
AC50 [8]: 8.72 µM (active)
EC50 [9]: 2.96 µM (active)
AC50 [10]: 2.3 µM (active)
AC50 (Cytochrome P450 3A4): 25.1 µM (inconclusive)
AC50 [11]: 1.25 µM (active)
IC50 [12]: 3.31 µM (active)
AC50 [13]: 4.82 µM (active)
IC50 (Interleukin-8 [14]): 4.14 µM (active)
AC50 [15]: 0.976 µM (active)
AC50 [16]: 8.58 µM (active)
IC50 (Interleukin-8 [17]): 42.4 µM (inactive)

N#Cc1ncc(Cc2ccccc2)nc1C#N
EC50 [18]: 18.1 µM (active)
AC50 [19]: 2.42 µM (active)
IC50 [20]: 18.1 µM (inactive)
EC50 (Protein RecA): 1.71 µM (active)

O=C(O)CC1(CC(=O)Nc2cc(C(F)(F)F)cc(C(F)(F)F)c2)CCCCC1
IC50 [21]: 2.23 µM (active)

O=C(CSc1cccc2cccnc12)Nc1ccccc1F
AC50 [22]: 90.5 µM (active)
